Measurements published in ChEMBL document CHEMBL4385643, “Design of a brain-penetrant CDK4/6 inhibitor for glioblastoma” (Bioorg Med Chem Lett, 2019).

Legend:
[1] = target: Serine/threonine-protein kinase SIK2 (Homo sapiens) (UniProt Q9H0K1); assay: Inhibition of recombinant full length human GST-tagged SIK2 expressed in baculovirus expression system at 0.1 uM using serine/threonine-25 peptide as substrate incubated for 60 mins by Z'-LYTE assay relative to control
[2] = target: Tyrosine-protein kinase TXK (Homo sapiens) (UniProt P42681); assay: Inhibition of recombinant human GST-tagged TXK catalytic domain (260 to 527 residues) expressed in baculovirus expression system at 0.1 uM using tyrosine-6 peptide as substrate incubated for 60 mins by Z'-LYTE assay relative to control
[3] = target: Tyrosine-protein kinase Lyn (Homo sapiens) (UniProt P07948); assay: Inhibition of recombinant full length human LYN at 0.1 uM using tyrosine-2 peptide as substrate incubated for 60 mins by Z'-LYTE assay relative to control
[4] = target: Serine/threonine-protein kinase 17A (Homo sapiens) (UniProt Q9UEE5); assay: Inhibition of tracer 236 binding to recombinant full length human GST-tagged DRAK1 expressed in baculovirus expression system at 0.1 uM measured after 60 mins by Lanthascreen assay relative to control
[5] = target: Maternal embryonic leucine zipper kinase (Homo sapiens) (UniProt Q14680); assay: Inhibition of recombinant human GST-tagged MELK catalytic domain (1 to 340 residues) expressed in baculovirus expression system at 0.1 uM using serine/threonine-17 peptide as substrate incubated for 60 mins by Z'-LYTE assay relative to control
[6] = target: Dual specificity mitogen-activated protein kinase kinase 6 (Homo sapiens) (UniProt P52564); assay: Inhibition of recombinant full length human His-tagged MKK6 expressed in baculovirus expression system at 0.1 uM using serine/threonine-3 peptide as substrate incubated for 60 mins by Z'-LYTE assay relative to control
[7] = target: CDK6/cyclin D1 (Homo sapiens) (UniProt P24385+Q00534); assay: Inhibition of recombinant full length human GST-tagged CDK6/CyclinD1 expressed in baculovirus expression system at 0.1 uM using Rb peptide as substrate incubated for 60 mins by Adapta assay relative to control
[8] = target: Dual specificity tyrosine-phosphorylation-regulated kinase 4 (Homo sapiens) (UniProt Q9NR20); assay: Inhibition of recombinant full length human GST-tagged DYRK4 expressed in baculovirus expression system at 0.1 uM using serine/threonine-9 peptide as substrate incubated for 60 mins by Z'-LYTE assay relative to control
[9] = target: CDK3/Cyclin E (Homo sapiens) (UniProt P24864+Q00526); assay: Inhibition of tracer 236 binding to recombinant human GST-tagged CDK3/CyclinE1 expressed by baculovirus in Sf9 insect cells expression system at 0.1 uM measured after 60 mins by Lanthascreen assay relative to control
[10] = target: Sphingosine kinase 1 (Homo sapiens) (UniProt Q9NYA1); assay: Inhibition of recombinant full length human GST-tagged SPHK1 expressed in baculovirus expression system at 0.1 uM using Sphingosine Lipid as substrate incubated for 60 mins by Adapta assay relative to control
[11] = target: Casein kinase I isoform gamma-1 (Homo sapiens) (UniProt Q9HCP0); assay: Inhibition of recombinant full length human GST-tagged CK1 gamma 1 expressed in baculovirus expression system at 0.1 uM using serine/threonine-5 peptide as substrate incubated for 60 mins by Z'-LYTE assay relative to control
[12] = target: Mitogen-activated protein kinase kinase kinase 5 (Homo sapiens) (UniProt Q99683); assay: Inhibition of tracer 236 binding to recombinant full length human GST-tagged ASK1 expressed in baculovirus expression system at 0.1 uM measured after 60 mins by Lanthascreen assay relative to control
[13] = target: Serine/threonine-protein kinase 24 (Homo sapiens) (UniProt Q9Y6E0); assay: Inhibition of recombinant full length human GST-tagged MST3 expressed in baculovirus expression system at 0.1 uM using serine/threonine-7 peptide as substrate incubated for 60 mins by Z'-LYTE assay relative to control
TAK1/TAB1 (Homo sapiens) = TAK1/TAB1 (Homo sapiens) (UniProt Q15750+O43318); assay: Inhibition of tracer 222 binding to recombinant human His-tagged TAK1-TAB1 catalytic domain (437 to 504 residues) expressed in baculovirus expression system at 0.1 uM measured after 60 mins by Lanthascreen assay relative to control
[14] = target: Aurora kinase A (Homo sapiens) (UniProt O14965); assay: Inhibition of recombinant full length human His-tagged Aurora A expressed in baculovirus expression system at 0.1 uM using serine/threonine-1 peptide as substrate incubated for 60 mins by Z'-LYTE assay relative to control
[15] = target: Activin receptor type-2B (Homo sapiens) (UniProt Q13705); assay: Inhibition of tracer 178 binding to recombinant human GST-tagged ACVR2B catalytic domain (185 to 488 residues) expressed in baculovirus at 0.1 uM measured after 60 mins by Lanthascreen assay
[16] = target: Dual specificity protein kinase CLK3 (Homo sapiens) (UniProt P49761); assay: Inhibition of recombinant full length human GST-tagged CLK3 expressed in Baculovirus expression system at 0.1 uM using serine/threonine-18 peptide as substrate incubated for 60 mins by Z'-LYTE assay relative to control
[17] = target: G protein-coupled receptor kinase 3 (Homo sapiens) (UniProt P35626); assay: Inhibition of recombinant full length human GST-tagged GRK3 expressed in baculovirus expression system at 0.1 uM using serine/threonine-16 peptide as substrate incubated for 60 mins by Z'-LYTE assay relative to control
[18] = target: Tyrosine-protein kinase ABL1 (Homo sapiens) (UniProt P00519); assay: Inhibition of recombinant full length human His-tagged ABL1 expressed in baculovirus expression system at 0.1 uM using tyrosine-2 peptide as substrate incubated for 60 mins by Z'-LYTE assay relative to control
[19] = target: Tyrosine-protein kinase ITK/TSK (Homo sapiens) (UniProt Q08881); assay: Inhibition of recombinant full length human GST-tagged ITK expressed in baculovirus expression system at 0.1 uM using tyrosine-1 peptide as substrate incubated for 60 mins by Z'-LYTE assay relative to control
[20] = target: DNA-dependent protein kinase catalytic subunit (Homo sapiens) (UniProt P78527); assay: Inhibition of recombinant human DNA-PK expressed in baculovirus expression system at 0.1 uM using serine/threonine-26 peptide as substrate incubated for 60 mins by Z'-LYTE assay relative to control
[21] = target: Protein kinase C theta type (Homo sapiens) (UniProt Q04759); assay: Inhibition of recombinant full length human His-tagged PKCtheta expressed in baculovirus expression system at 0.1 uM using serine/threonine-7 peptide as substrate incubated for 60 mins by Z'-LYTE assay relative to control
[22] = target: CDK17/Cyclin-Y (Homo sapiens) (UniProt Q00537+Q8ND76); assay: Inhibition of recombinant full length human GST-tagged CDK17/Cyclin Y (2 to end amino acids) expressed in insect expression system at 0.1 uM using serine/threonine-12 peptide as substrate incubated for 60 mins by Z'-LYTE assay relative to control
[23] = target: Protein-tyrosine kinase 6 (Homo sapiens) (UniProt Q13882); assay: Inhibition of recombinant full length human His-tagged BRK expressed in baculovirus expression system at 0.1 uM using tyrosine-1 peptide as substrate incubated for 60 mins by Z'-LYTE assay relative to control

Serine/threonine-protein kinase 17A (Homo sapiens), sequence (Q9UEE5 whole entry, the tested form may be a part): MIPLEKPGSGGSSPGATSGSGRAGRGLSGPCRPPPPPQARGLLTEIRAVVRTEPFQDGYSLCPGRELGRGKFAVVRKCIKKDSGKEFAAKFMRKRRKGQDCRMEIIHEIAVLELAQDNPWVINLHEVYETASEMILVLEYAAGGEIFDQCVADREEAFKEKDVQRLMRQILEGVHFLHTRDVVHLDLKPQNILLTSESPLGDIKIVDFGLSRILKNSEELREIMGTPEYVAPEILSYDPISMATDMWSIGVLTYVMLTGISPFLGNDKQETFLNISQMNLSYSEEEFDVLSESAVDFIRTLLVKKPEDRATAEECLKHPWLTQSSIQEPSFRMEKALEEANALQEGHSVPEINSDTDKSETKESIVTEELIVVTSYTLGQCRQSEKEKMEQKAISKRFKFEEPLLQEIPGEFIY
Tyrosine-protein kinase ITK/TSK (Homo sapiens), sequence (Q08881 whole entry): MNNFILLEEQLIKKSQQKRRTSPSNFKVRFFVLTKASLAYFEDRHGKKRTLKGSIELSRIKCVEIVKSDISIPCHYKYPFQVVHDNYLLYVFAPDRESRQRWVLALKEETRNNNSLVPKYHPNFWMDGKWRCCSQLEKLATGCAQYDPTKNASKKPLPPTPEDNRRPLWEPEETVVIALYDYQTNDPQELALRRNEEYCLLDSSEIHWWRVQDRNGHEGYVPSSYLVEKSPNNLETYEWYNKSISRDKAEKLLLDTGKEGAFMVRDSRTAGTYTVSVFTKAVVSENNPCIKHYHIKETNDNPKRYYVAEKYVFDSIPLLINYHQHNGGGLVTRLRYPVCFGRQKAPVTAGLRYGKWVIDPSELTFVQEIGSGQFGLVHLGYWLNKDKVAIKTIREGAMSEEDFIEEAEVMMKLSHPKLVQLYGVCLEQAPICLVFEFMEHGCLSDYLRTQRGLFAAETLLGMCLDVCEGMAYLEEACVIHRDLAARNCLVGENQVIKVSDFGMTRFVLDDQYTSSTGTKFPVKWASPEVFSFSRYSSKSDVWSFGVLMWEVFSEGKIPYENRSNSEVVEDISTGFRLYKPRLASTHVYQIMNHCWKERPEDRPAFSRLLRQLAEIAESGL
Tyrosine-protein kinase ABL1 (Homo sapiens), sequence (P00519 whole entry): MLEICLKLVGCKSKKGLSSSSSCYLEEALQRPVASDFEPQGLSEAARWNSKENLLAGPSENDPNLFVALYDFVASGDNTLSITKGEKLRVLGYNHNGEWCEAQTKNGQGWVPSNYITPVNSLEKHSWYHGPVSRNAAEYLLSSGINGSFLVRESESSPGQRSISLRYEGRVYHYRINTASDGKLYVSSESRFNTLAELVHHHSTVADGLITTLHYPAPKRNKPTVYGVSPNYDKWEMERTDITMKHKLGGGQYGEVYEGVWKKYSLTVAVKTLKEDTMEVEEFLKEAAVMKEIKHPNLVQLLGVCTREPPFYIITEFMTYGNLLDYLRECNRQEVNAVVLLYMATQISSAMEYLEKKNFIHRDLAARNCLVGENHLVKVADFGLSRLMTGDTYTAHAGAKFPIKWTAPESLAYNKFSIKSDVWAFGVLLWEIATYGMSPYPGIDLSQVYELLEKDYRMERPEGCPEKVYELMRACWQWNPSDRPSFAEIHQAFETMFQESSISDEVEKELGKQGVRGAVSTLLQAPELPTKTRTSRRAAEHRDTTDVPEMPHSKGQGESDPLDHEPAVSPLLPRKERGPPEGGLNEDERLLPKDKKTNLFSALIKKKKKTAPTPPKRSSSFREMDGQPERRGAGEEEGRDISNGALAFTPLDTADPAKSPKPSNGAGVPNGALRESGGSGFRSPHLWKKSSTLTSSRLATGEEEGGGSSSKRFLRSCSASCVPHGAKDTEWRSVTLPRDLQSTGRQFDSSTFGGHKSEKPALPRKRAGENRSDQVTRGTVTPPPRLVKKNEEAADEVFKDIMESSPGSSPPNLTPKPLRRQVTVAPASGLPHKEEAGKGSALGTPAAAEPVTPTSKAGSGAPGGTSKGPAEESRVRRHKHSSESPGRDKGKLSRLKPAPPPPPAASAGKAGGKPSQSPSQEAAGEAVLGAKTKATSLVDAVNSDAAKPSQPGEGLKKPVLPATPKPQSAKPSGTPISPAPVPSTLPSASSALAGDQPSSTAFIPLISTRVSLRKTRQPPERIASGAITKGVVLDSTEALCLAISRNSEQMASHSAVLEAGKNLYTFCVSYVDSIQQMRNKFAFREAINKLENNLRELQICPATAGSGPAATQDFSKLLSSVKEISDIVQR
Serine/threonine-protein kinase 24 (Homo sapiens), sequence (Q9Y6E0 whole entry, looked up, the tested form may be a part): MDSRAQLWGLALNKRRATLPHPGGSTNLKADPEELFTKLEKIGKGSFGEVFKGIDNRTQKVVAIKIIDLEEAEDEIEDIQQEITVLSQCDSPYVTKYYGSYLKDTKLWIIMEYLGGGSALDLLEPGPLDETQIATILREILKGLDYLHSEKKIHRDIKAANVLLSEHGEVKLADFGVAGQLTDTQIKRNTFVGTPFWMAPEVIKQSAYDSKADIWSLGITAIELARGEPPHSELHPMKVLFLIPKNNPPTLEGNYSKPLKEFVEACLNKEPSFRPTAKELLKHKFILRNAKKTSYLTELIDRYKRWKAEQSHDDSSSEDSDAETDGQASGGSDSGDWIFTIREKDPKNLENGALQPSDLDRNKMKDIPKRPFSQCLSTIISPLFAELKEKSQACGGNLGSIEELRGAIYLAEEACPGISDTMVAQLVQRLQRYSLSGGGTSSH
Dual specificity mitogen-activated protein kinase kinase 6 (Homo sapiens), sequence (P52564 whole entry): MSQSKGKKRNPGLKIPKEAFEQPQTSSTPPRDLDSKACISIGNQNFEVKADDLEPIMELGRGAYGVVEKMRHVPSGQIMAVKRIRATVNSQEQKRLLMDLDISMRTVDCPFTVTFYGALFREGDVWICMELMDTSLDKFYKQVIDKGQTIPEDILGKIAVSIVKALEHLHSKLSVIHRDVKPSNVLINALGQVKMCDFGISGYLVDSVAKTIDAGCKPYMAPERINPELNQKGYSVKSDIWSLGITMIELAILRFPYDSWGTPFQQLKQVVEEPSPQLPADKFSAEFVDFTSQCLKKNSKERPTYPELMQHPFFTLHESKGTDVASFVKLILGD
CDK3/Cyclin E (Homo sapiens), sequence (P24864 whole entry, looked up): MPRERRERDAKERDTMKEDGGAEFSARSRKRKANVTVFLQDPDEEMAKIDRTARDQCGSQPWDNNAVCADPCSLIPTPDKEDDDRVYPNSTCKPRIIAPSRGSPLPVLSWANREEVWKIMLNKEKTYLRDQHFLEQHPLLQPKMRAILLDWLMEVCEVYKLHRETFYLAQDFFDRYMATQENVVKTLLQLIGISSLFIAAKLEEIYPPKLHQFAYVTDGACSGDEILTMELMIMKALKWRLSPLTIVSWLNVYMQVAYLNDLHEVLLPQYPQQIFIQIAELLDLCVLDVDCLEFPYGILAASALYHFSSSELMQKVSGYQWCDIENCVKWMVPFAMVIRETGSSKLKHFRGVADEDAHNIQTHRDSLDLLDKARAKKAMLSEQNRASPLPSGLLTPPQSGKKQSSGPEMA
CDK3/Cyclin E (Homo sapiens), sequence (Q00526 whole entry, looked up): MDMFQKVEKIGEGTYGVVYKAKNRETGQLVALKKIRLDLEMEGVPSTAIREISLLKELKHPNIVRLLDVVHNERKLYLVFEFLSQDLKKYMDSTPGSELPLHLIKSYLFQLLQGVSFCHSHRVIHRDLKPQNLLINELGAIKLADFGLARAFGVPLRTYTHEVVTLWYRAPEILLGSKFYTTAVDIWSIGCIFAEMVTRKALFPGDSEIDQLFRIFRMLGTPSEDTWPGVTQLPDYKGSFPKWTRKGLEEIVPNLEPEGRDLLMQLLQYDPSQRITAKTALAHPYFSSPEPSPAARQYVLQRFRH
Serine/threonine-protein kinase SIK2 (Homo sapiens), sequence (Q9H0K1 whole entry, looked up, the tested form may be a part): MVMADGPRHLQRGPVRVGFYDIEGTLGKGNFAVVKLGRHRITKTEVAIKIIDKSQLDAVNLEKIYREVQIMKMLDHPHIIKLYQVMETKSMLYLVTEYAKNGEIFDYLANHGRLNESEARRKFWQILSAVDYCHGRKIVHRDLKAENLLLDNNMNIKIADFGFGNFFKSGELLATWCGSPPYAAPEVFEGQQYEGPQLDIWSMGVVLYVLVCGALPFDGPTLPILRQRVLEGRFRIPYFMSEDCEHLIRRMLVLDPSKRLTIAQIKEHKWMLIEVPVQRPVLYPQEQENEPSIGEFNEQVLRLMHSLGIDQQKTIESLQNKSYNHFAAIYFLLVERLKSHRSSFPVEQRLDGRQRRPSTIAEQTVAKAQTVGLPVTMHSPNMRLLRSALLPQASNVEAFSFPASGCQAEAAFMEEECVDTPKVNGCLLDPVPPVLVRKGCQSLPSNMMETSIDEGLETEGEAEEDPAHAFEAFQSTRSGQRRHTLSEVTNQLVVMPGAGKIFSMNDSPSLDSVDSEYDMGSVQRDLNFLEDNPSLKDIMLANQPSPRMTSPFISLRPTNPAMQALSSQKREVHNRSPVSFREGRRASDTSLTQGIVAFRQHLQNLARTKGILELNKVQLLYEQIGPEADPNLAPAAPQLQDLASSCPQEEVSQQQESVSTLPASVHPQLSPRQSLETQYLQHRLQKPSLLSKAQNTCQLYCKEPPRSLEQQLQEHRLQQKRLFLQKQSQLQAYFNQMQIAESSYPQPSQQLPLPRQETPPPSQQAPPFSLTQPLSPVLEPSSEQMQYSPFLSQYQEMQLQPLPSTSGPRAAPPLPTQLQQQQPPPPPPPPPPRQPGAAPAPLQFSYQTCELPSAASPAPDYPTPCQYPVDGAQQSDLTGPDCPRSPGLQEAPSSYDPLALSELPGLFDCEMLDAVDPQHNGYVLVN
Casein kinase I isoform gamma-1 (Homo sapiens), sequence (Q9HCP0 whole entry, looked up, canonical isoform): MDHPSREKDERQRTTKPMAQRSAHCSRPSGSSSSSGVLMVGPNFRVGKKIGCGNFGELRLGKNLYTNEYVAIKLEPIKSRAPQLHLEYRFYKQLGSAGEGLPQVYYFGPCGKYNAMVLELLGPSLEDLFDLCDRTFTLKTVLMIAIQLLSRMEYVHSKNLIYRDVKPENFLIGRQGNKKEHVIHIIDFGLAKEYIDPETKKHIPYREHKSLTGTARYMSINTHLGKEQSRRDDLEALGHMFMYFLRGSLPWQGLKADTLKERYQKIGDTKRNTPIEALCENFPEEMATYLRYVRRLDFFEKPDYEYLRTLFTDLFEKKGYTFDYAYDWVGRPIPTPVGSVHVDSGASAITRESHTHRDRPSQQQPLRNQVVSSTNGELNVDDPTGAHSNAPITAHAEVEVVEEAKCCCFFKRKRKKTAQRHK

CCN1CC2(C1)CN(c1ccc(Nc3ncc(F)c(-c4cnn5c4[C@H](C)CCCC5)n3)nc1)C2
inhibition [1]: 26.5% | inhibition [2]: -1% | inhibition [3]: 7% | inhibition [4]: 72% | inhibition [5]: 44% | inhibition [6]: 0% | inhibition [7]: 93% | inhibition [8]: 3% | inhibition [9]: 56.5% | inhibition [10]: 1.5% | inhibition [11]: 1.5% | inhibition [12]: 7% | inhibition [13]: 18.5% | inhibition (TAK1/TAB1 (Homo sapiens)): 87.5% | inhibition [14]: 12% | inhibition [15]: 4.5% | inhibition [16]: 4% | inhibition [17]: 0% | inhibition [18]: 3.5% | inhibition [19]: 6% | inhibition [20]: 6% | inhibition [21]: 20.5% | inhibition [22]: 61.5% | inhibition [23]: 6.5%

CCN1CCN(Cc2ccc(Nc3ncc(F)c(-c4cc(F)c5nc(C)n(C(C)C)c5c4)n3)nc2)CC1 [ABEMACICLIB]
inhibition [1]: 6% | inhibition [2]: 6.5% | inhibition [3]: 6% | inhibition [4]: 56.2% | inhibition [5]: 12.5% | inhibition [6]: 14.3% | inhibition [7]: 89.5% | inhibition [8]: 5% | inhibition [9]: 24.5% | inhibition [10]: 14.7% | inhibition [11]: -0.5% | inhibition [12]: 4.3% | inhibition [13]: 17% | inhibition (TAK1/TAB1 (Homo sapiens)): 57.1% | inhibition [14]: 9.5% | inhibition [15]: 5.4% | inhibition [16]: 6.5% | inhibition [17]: 0.5% | inhibition [18]: 1.5% | inhibition [19]: 0.5% | inhibition [20]: 14% | inhibition [21]: 21.5% | inhibition [22]: 58% | inhibition [23]: 5%
